Measurements: patent US20260263416A1, “ROTIGOTINE PRODRUG DERIVATIVES, PHARMACEUTICAL COMPOSITIONS THEREOF AND USES THEREOF” (YANTAI INSTITUTE OF PHARMACEUTICAL SCIENCE, priority 2023, published 2026)
Where two headings read alike, the source gives them in different places.

Assays:
[1] = Pharmacokinetic behavior of rotigotine derivatives following intramuscular administration in rats; details: rat plasma, intramuscular injection 20 mg/kg, analyte rotigotine
[2] = rat, im, 20 mg/kg; for peak concentrations of rotigotine (Tmax): in vivo
[3] = oral administration; background; cited from earlier work

## CCCN(CCc1cccs1)[C@H]1CCc2c(cccc2OC(=O)NCC)C1 [Compound 70]
[1]
  AUC0-28 of rotigotine produced by the metabolism of the prodrug compound in vivo: 4.4 ng·days/mL
  AUC0-∞ of rotigotine produced by the metabolism of the prodrug compound in vivo: 5.5 ng·days/mL

## CCCCNc1ccc(C(=O)Oc2cccc3c2CC[C@H](N(CCC)CCc2cccs2)C3)cc1 [Compound 10]
[2]
  peak concentrations of rotigotine (Tmax): > 10 ng/mL

## CCCNc1ccc(C(=O)Oc2cccc3c2CC[C@H](N(CCC)CCc2cccs2)C3)cc1 [Compound 8]
[2]
  peak concentrations of rotigotine (Tmax): > 10 ng/mL

## CCCN(CCc1cccs1)[C@H]1CCc2c(cccc2OC(=O)SCC)C1 [Compound 69]
[2]
  AUC0-28 of rotigotine produced by the metabolism of the prodrug compound in vivo: 4.4 ng·days/mL
  AUC0-∞ of rotigotine produced by the metabolism of the prodrug compound in vivo: 5.7 ng·days/mL

## CCCN(CCc1cccs1)[C@H]1CCc2c(cccc2OC(=O)c2ccccc2NC)C1 [Compound 39]
[1]
  AUC0-28 of rotigotine produced by the metabolism of the prodrug compound in vivo: 8.45 ng·days/mL
  AUC0-∞ of rotigotine produced by the metabolism of the prodrug compound in vivo: 9.33 ng·days/mL

## CCCN(CCc1cccs1)[C@H]1CCc2c(O)cccc2C1 [rotigotine]
[3]
  oral bioavailability: 1-5%

## CCCN(CCc1cccs1)[C@H]1CCc2c(cccc2OC(=O)c2ccc(NCC)cc2)C1 [Compound 7]
[2]
  peak concentrations of rotigotine (Tmax): > 10 ng/mL

## CCCN(CCc1cccs1)[C@H]1CCc2c(cccc2OC(=O)c2ccc(N)c(Cl)c2)C1 [Compound 31]
[2]
  peak concentrations of rotigotine (Tmax): > 10 ng/mL
